# Data as given in PMC10175918 (Communications Biology, 2023).
# Read-outs that look alike come from different tables or passages of the source.
# Assays:
# Experiment in all cases: TGFα-shedding assay-based GPCR screening with chimeric Gα subunit proteins
# Type in all cases: cell-based
# 348 GPCRs [1] = molecular target: T1, 348 GPCRs (Homo sapiens, UniProt P21462); conditions: 10µM, Favipiravir 100μM
# T1 sequence (P21462 1-350): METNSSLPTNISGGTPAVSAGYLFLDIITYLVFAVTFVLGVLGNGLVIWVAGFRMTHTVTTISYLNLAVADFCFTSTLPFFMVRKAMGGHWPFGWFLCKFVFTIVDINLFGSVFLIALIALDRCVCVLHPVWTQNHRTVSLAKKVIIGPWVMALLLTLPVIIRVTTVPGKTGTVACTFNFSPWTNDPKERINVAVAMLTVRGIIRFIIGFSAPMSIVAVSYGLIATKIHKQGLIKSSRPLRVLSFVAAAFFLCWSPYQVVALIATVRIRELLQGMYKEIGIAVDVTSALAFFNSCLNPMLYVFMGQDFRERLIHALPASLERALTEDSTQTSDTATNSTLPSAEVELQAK
# 348 GPCRs [2] = molecular target: T2, 348 GPCRs (Homo sapiens, UniProt P18825)
# T2 construct: expressed in transfected cells; host or cells: HEK293A
# T2 sequence (P18825 1-462): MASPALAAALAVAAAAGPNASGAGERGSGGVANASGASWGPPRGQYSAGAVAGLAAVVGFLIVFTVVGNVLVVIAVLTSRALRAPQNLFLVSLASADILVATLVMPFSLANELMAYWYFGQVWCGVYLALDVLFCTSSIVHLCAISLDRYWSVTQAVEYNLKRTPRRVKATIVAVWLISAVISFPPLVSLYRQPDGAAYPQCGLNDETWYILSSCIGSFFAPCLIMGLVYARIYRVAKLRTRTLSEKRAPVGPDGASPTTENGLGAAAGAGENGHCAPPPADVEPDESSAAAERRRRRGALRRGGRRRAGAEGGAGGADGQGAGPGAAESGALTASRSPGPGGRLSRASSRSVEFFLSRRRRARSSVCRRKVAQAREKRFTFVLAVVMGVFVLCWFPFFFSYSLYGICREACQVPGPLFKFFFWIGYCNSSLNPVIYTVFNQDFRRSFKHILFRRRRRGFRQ
# 348 GPCRs [3] = molecular target: T3, 348 GPCRs (Homo sapiens, UniProt O14843); conditions: 10µM, Favipiravir 100μM
# T3 construct: expressed in transfected cells; host or cells: HEK293A
# T3 sequence (O14843 1-346): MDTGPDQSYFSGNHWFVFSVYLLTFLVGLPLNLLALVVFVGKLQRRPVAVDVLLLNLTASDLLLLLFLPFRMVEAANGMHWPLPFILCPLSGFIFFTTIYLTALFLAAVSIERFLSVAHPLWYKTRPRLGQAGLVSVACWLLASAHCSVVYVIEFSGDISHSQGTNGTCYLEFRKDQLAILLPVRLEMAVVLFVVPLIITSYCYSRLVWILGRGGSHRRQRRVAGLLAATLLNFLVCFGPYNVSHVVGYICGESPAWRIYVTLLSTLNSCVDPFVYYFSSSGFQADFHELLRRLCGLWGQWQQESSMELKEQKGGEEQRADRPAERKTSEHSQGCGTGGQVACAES
# 348 GPCRs [4] = molecular target: 348 GPCRs (Homo sapiens, UniProt P35462); conditions: 10µM, Favipiravir 100μM
# 348 GPCRs [5] = molecular target: T4, 348 GPCRs (Homo sapiens, UniProt P34995); conditions: 10µM, Favipiravir 100μM
# T4 construct: expressed in transfected cells; host or cells: HEK293A
# T4 sequence (P34995 1-402): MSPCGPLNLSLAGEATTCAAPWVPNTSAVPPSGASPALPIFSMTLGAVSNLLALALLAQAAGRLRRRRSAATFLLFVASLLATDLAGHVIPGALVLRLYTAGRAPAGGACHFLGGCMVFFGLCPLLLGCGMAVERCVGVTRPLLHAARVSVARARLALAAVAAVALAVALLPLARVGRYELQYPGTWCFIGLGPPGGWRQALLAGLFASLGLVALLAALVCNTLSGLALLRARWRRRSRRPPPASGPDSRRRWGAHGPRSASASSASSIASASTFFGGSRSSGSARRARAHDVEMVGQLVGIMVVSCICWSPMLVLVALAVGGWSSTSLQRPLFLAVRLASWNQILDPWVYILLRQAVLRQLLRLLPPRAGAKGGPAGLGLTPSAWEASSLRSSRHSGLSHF
# 348 GPCRs [6] = molecular target: T5, 348 GPCRs (Homo sapiens, UniProt P30939); conditions: 5-HT1F (5-hydroxytryptamine receptor 1F); 10µM, Favipiravir 100μM
# T5 construct: expressed in transfected cells; host or cells: HEK293A
# T5 sequence (P30939 1-366): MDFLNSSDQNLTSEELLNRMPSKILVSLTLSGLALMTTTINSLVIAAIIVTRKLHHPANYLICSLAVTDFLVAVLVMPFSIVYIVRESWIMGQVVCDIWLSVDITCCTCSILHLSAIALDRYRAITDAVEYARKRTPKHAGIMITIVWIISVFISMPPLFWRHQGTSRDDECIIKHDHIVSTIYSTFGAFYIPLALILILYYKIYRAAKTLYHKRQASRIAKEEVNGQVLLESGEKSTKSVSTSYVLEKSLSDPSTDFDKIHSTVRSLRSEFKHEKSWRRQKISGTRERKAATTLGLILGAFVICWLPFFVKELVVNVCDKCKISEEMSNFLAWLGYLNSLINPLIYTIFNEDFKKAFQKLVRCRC
# 348 GPCRs [7] = molecular target: T6, 348 GPCRs (Homo sapiens, UniProt P30550); conditions: 10µM, Favipiravir 100μM
# T6 construct: expressed in transfected cells; host or cells: HEK293A
# 348 GPCRs [8] = molecular target: T7, 348 GPCRs (Homo sapiens, UniProt Q9H1C0); conditions: 10µM, Favipiravir 100μM
# T7 construct: expressed in transfected cells; host or cells: HEK293A
# [9] = FPR1 (formyl peptide receptor 1), read-out: % GPCR activation compared to TPA
# [10] = GPCR α2C (adrenoceptor alpha 2C), read-out: % GPCR activation compared to TPA
# [11] = FFA3 (free fatty acid receptor 3), read-out: % GPCR activation compared to TPA
# [12] = D3 (dopamine receptor D3), read-out: % GPCR activation compared to TPA
# [13] = EP1 (prostaglandin E receptor 1), read-out: % GPCR activation compared to TPA
# [14] = GRPR (gastrin-releasing peptide receptor), read-out: % GPCR activation compared to TPA
# [15] = LPAR5 (lysophosphatidic acid receptor 5), read-out: % GPCR activation compared to TPA
# [16] = read-out: % GPCR activation compared to TPA, FPR1 (formyl peptide receptor 1)
# [17] = read-out: % GPCR activation compared to TPA, GPCR α2C (adrenoceptor alpha 2C)
# [18] = read-out: % GPCR activation compared to TPA, FFA3 (free fatty acid receptor 3)
# [19] = read-out: % GPCR activation compared to TPA, D3 (dopamine receptor D3)
# [20] = read-out: % GPCR activation compared to TPA, EP1 (prostaglandin E receptor 1)
# [21] = read-out: % GPCR activation compared to TPA, GRPR (gastrin-releasing peptide receptor)
# [22] = read-out: % GPCR activation compared to TPA, LPAR5 (lysophosphatidic acid receptor 5)
# T6 sequence (P30550 whole entry): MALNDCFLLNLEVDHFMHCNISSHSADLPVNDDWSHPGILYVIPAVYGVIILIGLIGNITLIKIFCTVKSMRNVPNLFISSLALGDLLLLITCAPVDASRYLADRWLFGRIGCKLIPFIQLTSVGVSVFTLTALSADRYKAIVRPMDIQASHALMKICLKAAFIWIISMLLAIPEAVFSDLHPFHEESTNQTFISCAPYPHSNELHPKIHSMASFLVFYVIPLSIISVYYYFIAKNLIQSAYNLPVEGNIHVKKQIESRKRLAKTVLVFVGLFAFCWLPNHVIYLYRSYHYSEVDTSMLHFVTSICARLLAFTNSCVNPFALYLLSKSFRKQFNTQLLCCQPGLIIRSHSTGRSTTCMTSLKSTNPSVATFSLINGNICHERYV
# T7 sequence (Q9H1C0 whole entry): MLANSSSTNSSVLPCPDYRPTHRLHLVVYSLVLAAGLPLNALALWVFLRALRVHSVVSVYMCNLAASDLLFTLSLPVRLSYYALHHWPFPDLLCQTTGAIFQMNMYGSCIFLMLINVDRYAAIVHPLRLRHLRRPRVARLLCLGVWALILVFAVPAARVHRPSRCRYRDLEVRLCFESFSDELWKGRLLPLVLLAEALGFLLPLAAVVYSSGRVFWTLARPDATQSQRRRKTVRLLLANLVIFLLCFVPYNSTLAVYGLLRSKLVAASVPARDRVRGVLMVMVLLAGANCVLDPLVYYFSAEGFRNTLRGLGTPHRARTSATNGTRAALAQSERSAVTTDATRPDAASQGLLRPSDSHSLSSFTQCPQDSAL
# Sequence of 348 GPCRs (Homo sapiens, UniProt P35462) (P35462 whole entry): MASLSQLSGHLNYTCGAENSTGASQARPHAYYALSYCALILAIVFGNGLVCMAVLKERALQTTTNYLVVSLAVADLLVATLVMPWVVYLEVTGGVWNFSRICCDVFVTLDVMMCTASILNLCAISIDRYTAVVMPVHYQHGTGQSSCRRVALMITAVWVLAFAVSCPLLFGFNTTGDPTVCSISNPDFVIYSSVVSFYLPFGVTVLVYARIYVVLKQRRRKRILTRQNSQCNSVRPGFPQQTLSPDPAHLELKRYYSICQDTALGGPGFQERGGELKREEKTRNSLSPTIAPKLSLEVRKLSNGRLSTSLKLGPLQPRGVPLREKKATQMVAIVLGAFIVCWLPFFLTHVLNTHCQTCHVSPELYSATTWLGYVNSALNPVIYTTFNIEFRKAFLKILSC
SMILES,activation at 100 µM (348 GPCRs [1]; [9]) [%],activation at 10 µM (348 GPCRs [2]; [10]) [%],activation at 10 µM (348 GPCRs [3]; [11]) [%],activation at 100 µM (348 GPCRs [4]; [12]) [%],activation at 100 µM (348 GPCRs [5]; [13]) [%],% GPCR activation compared to TPA (348 GPCRs [6]) [%],activation at 10 µM (348 GPCRs [7]; [14]) [%],activation at 10 µM (348 GPCRs [8]; [15]) [%],"activation at 100 µM (348 GPCRs [2]; GPCR α2C (adrenoceptor alpha 2C), 100μM, read-out: % GPCR activation compared to TPA) [%]",activation at 100 µM (348 GPCRs [1]; [16]) [%],activation at 10 µM (348 GPCRs [2]; [17]) [%],activation at 10 µM (348 GPCRs [3]; [18]) [%],activation at 100 µM (348 GPCRs [4]; [19]) [%],activation at 100 µM (348 GPCRs [5]; [20]) [%],activation at 10 µM (348 GPCRs [7]; [21]) [%],activation at 10 µM (348 GPCRs [8]; [22]) [%]
"NC(=O)c1nc(F)cnc1O [favipiravir, 6-fluoro-3-hydroxy-2-pyrazinecarboxamide]",-5.47,–,-0.552,7.52,-1.04,1.629,-1.14,-1.99,7,–,–,–,–,–,–,–
CCC(CC)COC(=O)[C@H](C)N[P@](=O)(OC[C@H]1O[C@@](C#N)(c2ccc3c(N)ncnn23)[C@H](O)[C@@H]1O)Oc1ccccc1 [remdesivir],–,–,–,–,–,-2.148,–,–,–,-4.31,15.6,4.74,7.67,0.488,-2.02,2.15
CC(C)OC(=O)[C@H](C)N[P@](=O)(OC[C@H]1O[C@@H](n2ccc(=O)[nH]c2=O)[C@](C)(F)[C@@H]1O)Oc1ccccc1 [sofosbuvir],–,–,–,–,–,-0.8157,–,–,–,-0.986,-4.42,0.217,-1.16,-0.685,-1.24,1.1

# Second part, led by results:
activation at 100 µM (348 GPCRs [1]; [9]) [%],activation at 10 µM (348 GPCRs [2]; [10]) [%],activation at 10 µM (348 GPCRs [3]; [11]) [%],activation at 100 µM (348 GPCRs [4]; [12]) [%],activation at 100 µM (348 GPCRs [5]; [13]) [%],% GPCR activation compared to TPA (348 GPCRs [6]) [%],activation at 10 µM (348 GPCRs [7]; [14]) [%],activation at 10 µM (348 GPCRs [8]; [15]) [%],"activation at 100 µM (348 GPCRs [2]; GPCR α2C (adrenoceptor alpha 2C), 100μM, read-out: % GPCR activation compared to TPA) [%]",SMILES,activation at 100 µM (348 GPCRs [1]; [16]) [%],activation at 10 µM (348 GPCRs [2]; [17]) [%],activation at 10 µM (348 GPCRs [3]; [18]) [%],activation at 100 µM (348 GPCRs [4]; [19]) [%],activation at 100 µM (348 GPCRs [5]; [20]) [%],activation at 10 µM (348 GPCRs [7]; [21]) [%],activation at 10 µM (348 GPCRs [8]; [22]) [%]
-4.1,2.32,-0.449,4.08,-1.84,0.3563,-1.56,2.96,–,N#C[C@@]1(c2ccc3c(N)ncnn23)O[C@H](CO)[C@@H](O)[C@H]1O [GS441524],–,–,–,–,–,–,–
-0.204,-6.27,-0.0973,0.0207,0.204,0.7188,-3.58,-2.73,–,CC(C)C(=O)OC[C@H]1O[C@@H](n2ccc(NO)nc2=O)[C@H](O)[C@@H]1O [molnupiravir],–,–,–,–,–,–,–
